From ChEMBL document CHEMBL1127616, “Synthesis, structural characterization, and antitumor properties of a novel class of large-ring platinum(II) chelate complexes incorporating the cis-1,4-diaminocyclohexane ligand in a unique locked boat conformation” (J Med Chem, 1994)

Key:
Type in all cases: functional, cell-based
Conditions in all cases: Mus musculus
P388 [1] = experiment: Tested for in vitro growth inhibition against murine leukemia cell P388Pt4
P388 [2] = experiment: Tested for in vitro growth inhibition against murine leukemia cell P388S
L1210 [3] = experiment: Tested for in vitro growth inhibition against murine leukemia cell L1210S
L1210 [4] = experiment: Tested for in vitro growth inhibition against murine leukemia cell L1210DDP5
L1210 [5] = experiment: Tested for in vitro growth inhibition against murine leukemia cell L1210PtR4
L1210 [6] = experiment: Tested for in vitro growth inhibition against murine leukemia cell L1210DACH

Q: For [Pt(1R,2R-dach)Cl2], which ID50 (P388 [1]) is on record?
A: The ID50 was 0.83 µg/mL.

Q: What about the ID50 (P388 [2]) of the same substance?
A: The ID50 was 0.077 µg/mL.

Q: And the ID50 (L1210 [3])?
A: The ID50 was 0.059 µg/mL.

Q: What about the ID50 (L1210 [4]) of the same substance?
A: Its ID50 is 0.164 µg/mL.

Q: What about the ID50 (L1210 [5]) of the same substance?
A: Its ID50 is 0.161 µg/mL.

Q: And the ID50 (L1210 [6])?
A: The ID50 was 4.57 µg/mL.

Q: CI-973 was tested. Which ID50 (P388 [1]) did it give?
A: The ID50 was 1.62 µg/mL.

Q: And the ID50 (P388 [2])?
A: The ID50 was 0.1 µg/mL.

Q: And the ID50 (L1210 [3])?
A: Its ID50 is 0.76 µg/mL.

Q: And the ID50 (L1210 [4])?
A: Its ID50 is 3.9 µg/mL.

Q: What about the ID50 (L1210 [5]) of the same substance?
A: The ID50 was 2.6 µg/mL.

Q: And the ID50 (L1210 [6])?
A: The ID50 was 1.8 µg/mL.
